Test results as given in PMC4963475, “Two functionally distinct kinetochore pools of BubR1 ensure accurate chromosome segregation” (Nature Communications, 2016).
Non-standard residues stand in square brackets, D forms with d. Residues, ends and D or L forms follow the SMILES beside them. pT = C[C@@H](OP(=O)(O)O)[C@H](N)C(=O)O; Nle = CCCC[C@H](N)C(=O)O

Assays:
Bub1(1–553)/Bub3 = target: T1, Bub1(1–553)/Bub3 (Homo sapiens, UniProt O43683+O43684); experiment: MicroScale Thermophoresis (MST) affinity of MELT peptides for Bub1(1–553)/Bub3; format: binding; details: for Binding of Bub1(1–553)/Bub3 to phosphorylated MELT peptide, in words: 50 mM NaCl
T1 construct: 15 μg 3 × FLAG–Bub1(1–553)-expressing plasmid; made in house; host or cells: HEK293 cells (transient co-transfection)
From the text: We next wanted to quantitatively compare the ability of BubR1/Bub3 and Bub1/Bub3 to bind MELTp repeats. For this, we purified a FLAG–Bub1(1–553)/Bub3 complex in parallel with FLAG–BubR1/Bub3 (we could not obtain sufficient yields of the full-length Bub1/Bub3 complex, but have recently shown that Bub1 1–553 fully supports SAC signalling[29]). To determine the affinity of the complexes to MELTp repeats, we used MicroScale Thermophoresis (MST). Purified BubR1/Bub3 and Bub1(1–553)/Bub3 complexes were fluorescently labelled with maleimide chemistry for these measurements and tested for their ability to bind phosphorylated MELT12, MELT16 and MELT18 peptides (Fig. 2e–g; Supplementary Fig. 2). The binding of BubR1/Bub3 to MELT12 was strongly dependent on phosphorylation and the measured affinity was sensitive to the salt concentration in the buffer as expected for an interaction depending on electrostatic interactions with the phosphorylated threonine[26] (Fig. 2e–g; Supplementary Fig. 2C). We conducted the affinity measurements at 50 mM NaCl as this produced the best quality data for the Bub1(1–553)/Bub3 complex.
Ten 15-cm dishes were each seeded with 6 × 10^6 HEK293 cells and the next day each transfected with 15 μg 3 × FLAG–BubR1 or 15 μg 3 × FLAG–Bub1(1–553)-expressing plasmid and 15 μg untagged Bub3-expressing plasmid using lipofectamine 2000 (Invitrogen). Forty-eight hours after transfection, the cells were collected by trypsination and cells washed in cold PBS with 1 mM phenylmethyl sulphonyl fluoride. The cells were resuspended in 5 ml buffer A (350 mM NaCl, 50 mM Tris·HCl (pH 8.0), 0.05% NP-40 and protease inhibitor cocktail (Roche)) and lysed using a nitrogen cavitation bomb. Lysate was clarified by centrifugation and then incubated with 300 μl FLAG-affinity resin (Sigma-Aldrich) for 90 min at 4 °C. The FLAG resin was washed with 20 ml buffer A and proteins eluted with three times 300 μl buffer A containing […] 3 × FLAG peptide (Sigma). The eluates were pooled and concentrated to 500 μl and loaded on a Superdex 200 10/300 GL column equilibrated with buffer B (150 mM NaCl, 25 mM HEPES·KOH (pH 7.8), 5% glycerol and 0.5 mM TCEP) and peak fractions eluting at ∼500 kDa pooled and concentrated using a vivaspin-4 concentration device. Proteins were stored at −80 °C.
MST experiments were performed on a NanoTemper Monolith NT.115 instrument with blue/red channels. […] The fluorescently labelled protein complexes were mixed with equivalent volumes (10 μl) of a twofold serial dilution of the different peptides starting at concentrations between 10 and 20 times the calculated KD. The fraction of bound protein was derived from the averaged (1 s averaged) normalized fluorescence signals at t=8 s of the labelled complexes at different ligand concentrations. […]

BubR1/Bub3 = target: T2, BubR1/Bub3 (Homo sapiens, UniProt O43684+O60566); experiment: MicroScale Thermophoresis (MST) affinity of MELT peptides for BubR1/Bub3; format: binding; details: for Binding of BubR1/Bub3 to phosphorylated MELT peptide, in words: 50 mM NaCl
T2 construct: made in house; host or cells: HEK293 cells (transient co-transfection)
Description: To determine the affinity of the complexes to MELTp repeats, we used MicroScale Thermophoresis (MST). Purified BubR1/Bub3 and Bub1(1–553)/Bub3 complexes were fluorescently labelled with maleimide chemistry for these measurements and tested for their ability to bind phosphorylated MELT12, MELT16 and MELT18 peptides (Fig. 2e–g; Supplementary Fig. 2). […] We conducted the affinity measurements at 50 mM NaCl as this produced the best quality data for the Bub1(1–553)/Bub3 complex.
MST experiments were performed on a NanoTemper Monolith NT.115 instrument with blue/red channels. Both complexes, BubR1/Bub3 and Bub1(1–553)/Bub3, were labelled using the Monolith NT Protein Labeling kit RED-MALEIMIDE (NanoTemper Technologies GmbH) according to the supplied protocol. The labelling efficiency was ∼90% and 75%, respectively, and it was estimated by independent measurements of the protein concentration combining spectroscopic measurements and a NT-647 red dye calibration curve in the corresponding MST interaction buffer. Samples were prepared in MST buffer (50 mM HEPES (pH 7.8), 200 mM NaCl, 0.5 mM TCEP, 0.05% Tween 20 or 50 mM Tris (pH 7.8), 50 mM NaCl, 0.5 mM TCEP and 0.05% Tween 20), loaded into premium coated capillaries and measurements were performed at 40% MST power. Laser off/on times were 5 and 30 s, respectively. The fluorescently labelled BubR1/Bub3 and Bub1(1–553)/Bub3 were used at concentrations of 25 and 12.5 nM, respectively, at 40% light-emitting diode power for all peptides except for the double-phosphorylated MELT12 peptide in MST buffer 50 mM Tris (pH 7.8), 50 mM NaCl, 0.5 mM TCEP and 0.05% Tween 20 that were performed at 4 nM concentration of the labelled proteins and 80% light-emitting diode power. […] The fraction of bound protein was derived from the averaged (1 s averaged) normalized fluorescence signals at t=8 s of the labelled complexes at different ligand concentrations. […] The number of independent repeats was three for all measurements and error bars show the s.d. between these independent repeats.

HeLa cells = details: Bub1 RNAi 48 h, nocodazole 2 h, reversine 0.5 μM, 25–35% without reversine
Description: (a) Outline of the synchronization protocol used in this study. Left, RNAi and rescue protocol; right, Bub1 CRISPR/Cas9 knockout protocol. (b) HeLa cells were treated with a control RNAi oligo (luciferase) or an RNAi oligo targeting Bub1 for 48 h and arrested in mitosis using nocodazole for 2 h. Cells were fixed and stained with 4,6-diamidino-2-phenylindole (DAPI), CREST (centromere marker) and Bub1 antibodies. (c,e,g,i) The kinetochore levels of Bub1, BubR1 and KNL1 were determined in the indicated conditions and normalized to CREST. An unpaired t-test was used for statistical comparison of the different samples in e. […] (f) HeLa cells were transfected with Cas9 protein with guide RNA against Bub1 gene for 96 h and treated with nocodazole for 2 h. […] At least 160 individual kinetochores from eight cells were measured in each condition. […]
Cells growing on coverslips were washed once with PBS and fixed with 4% paraformaldehyde in PHEM buffer (60 mM PIPES, 25 mM HEPES, pH 6.9, 10 mM EGTA and 4 mM MgSO4) for 20 min at room temperature. […] Z-stacks 200 nm apart was recorded on a Deltavision Elite microscope (GE Healthcare), using a × 100 oil objective followed by deconvolution using Softworx before quantification. Protein intensity on kinetochores was quantified by drawing a circle closely along the rod-like CREST staining covering the interested outer kinetochore protein staining on both ends. […]

T1 sequence (O43683 1-553 limits assumed): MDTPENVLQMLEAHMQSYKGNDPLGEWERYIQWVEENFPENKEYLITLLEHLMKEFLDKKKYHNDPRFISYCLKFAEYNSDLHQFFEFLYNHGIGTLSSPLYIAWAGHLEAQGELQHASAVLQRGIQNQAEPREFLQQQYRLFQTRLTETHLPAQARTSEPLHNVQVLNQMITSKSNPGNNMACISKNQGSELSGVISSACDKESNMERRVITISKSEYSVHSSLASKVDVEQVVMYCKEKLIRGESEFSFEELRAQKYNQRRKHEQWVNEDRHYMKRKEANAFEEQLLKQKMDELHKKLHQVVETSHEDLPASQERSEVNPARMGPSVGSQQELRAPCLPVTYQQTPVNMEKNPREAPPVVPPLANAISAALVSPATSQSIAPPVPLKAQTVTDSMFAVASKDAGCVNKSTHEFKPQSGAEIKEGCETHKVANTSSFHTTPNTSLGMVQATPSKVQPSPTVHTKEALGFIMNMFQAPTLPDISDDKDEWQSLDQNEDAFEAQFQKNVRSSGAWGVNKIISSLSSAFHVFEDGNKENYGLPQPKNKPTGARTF
T1 sequence (O43684 whole entry): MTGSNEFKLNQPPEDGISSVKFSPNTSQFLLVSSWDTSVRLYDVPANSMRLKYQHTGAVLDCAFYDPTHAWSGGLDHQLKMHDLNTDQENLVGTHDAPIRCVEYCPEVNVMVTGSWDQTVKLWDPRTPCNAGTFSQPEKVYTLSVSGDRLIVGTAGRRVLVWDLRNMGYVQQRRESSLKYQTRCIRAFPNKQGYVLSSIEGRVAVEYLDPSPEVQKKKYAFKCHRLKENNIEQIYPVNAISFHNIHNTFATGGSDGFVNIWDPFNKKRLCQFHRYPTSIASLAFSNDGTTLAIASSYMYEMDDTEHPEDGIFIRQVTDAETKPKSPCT
T2 sequence (O60566 whole entry): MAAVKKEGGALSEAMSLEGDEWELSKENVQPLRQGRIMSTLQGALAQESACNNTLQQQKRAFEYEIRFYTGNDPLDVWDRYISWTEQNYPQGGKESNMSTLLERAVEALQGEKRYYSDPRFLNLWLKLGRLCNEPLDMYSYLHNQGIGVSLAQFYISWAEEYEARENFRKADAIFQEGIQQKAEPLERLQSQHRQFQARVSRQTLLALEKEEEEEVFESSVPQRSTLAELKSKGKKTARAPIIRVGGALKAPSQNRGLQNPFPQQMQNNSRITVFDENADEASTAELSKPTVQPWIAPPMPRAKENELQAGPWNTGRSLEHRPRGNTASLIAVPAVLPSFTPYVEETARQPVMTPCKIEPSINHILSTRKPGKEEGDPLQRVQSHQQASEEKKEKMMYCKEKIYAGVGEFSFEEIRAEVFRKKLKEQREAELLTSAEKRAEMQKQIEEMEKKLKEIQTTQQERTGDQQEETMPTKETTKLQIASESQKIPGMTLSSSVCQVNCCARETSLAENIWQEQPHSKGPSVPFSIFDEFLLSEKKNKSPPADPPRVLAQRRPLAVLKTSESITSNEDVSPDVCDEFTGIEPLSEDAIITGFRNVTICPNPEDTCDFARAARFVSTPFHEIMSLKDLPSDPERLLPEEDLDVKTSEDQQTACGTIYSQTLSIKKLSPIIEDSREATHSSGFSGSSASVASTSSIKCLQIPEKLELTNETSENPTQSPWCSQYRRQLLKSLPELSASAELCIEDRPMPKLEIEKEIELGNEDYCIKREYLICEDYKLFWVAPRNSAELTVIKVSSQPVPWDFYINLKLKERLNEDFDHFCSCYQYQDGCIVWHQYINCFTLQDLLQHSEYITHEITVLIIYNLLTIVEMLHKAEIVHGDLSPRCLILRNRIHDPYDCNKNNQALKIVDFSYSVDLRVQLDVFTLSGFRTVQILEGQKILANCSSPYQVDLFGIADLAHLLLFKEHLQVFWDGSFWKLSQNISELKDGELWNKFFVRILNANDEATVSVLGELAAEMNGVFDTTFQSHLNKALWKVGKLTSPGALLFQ
T2 sequence (O43684 whole entry): as the sequence (O43684 whole entry) above

Binding of Bub1(1–553)/Bub3 to phosphorylated MELT peptide, in words (Bub1(1–553)/Bub3)	Binding of BubR1/Bub3 to phosphorylated MELT peptide, in words (BubR1/Bub3)	Bub1(1–553)/Bub3 KD (Bub1(1–553)/Bub3; 50 mM Tris pH 7.8, 50 mM NaCl, 0.5 mM TCEP, 0.05% Tween 20, labelled Bub1(1–553)/Bub3 12.5 nM (4 nM for double-phosphorylated MELT12), three independent repeats)	BubR1/Bub3 KD (BubR1/Bub3; 50 mM Tris pH 7.8, 50 mM NaCl, 0.5 mM TCEP, 0.05% Tween 20, labelled BubR1/Bub3 25 nM (4 nM for double-phosphorylated MELT12), three independent repeats)	Molecule	BubR1 kinetochore levels remaining (normalized to CREST) (HeLa cells) [%]
bound	bound			CCCC[C@H](NC(=O)[C@H](CC(=O)O)NC(=O)[C@H](CC(N)=O)NC(=O)[C@H](CCCCN)NC(=O)[C@H](Cc1c[nH]cn1)NC(=O)[C@H](CC(N)=O)NC(=O)[C@@H](N)CCC(=O)O)C(=O)N[C@@H](CC(=O)O)C(=O)N[C@H](C(=O)N[C@H](C(=O)N[C@@H](CCC(N)=O)C(=O)N[C@@H](CO)C(=O)N[C@@H](CS)C(=O)N[C@@H](CCCC)C(=O)N[C@H](C(=O)N[C@@H](CCC(=O)O)C(=O)N[C@H](C(=O)N[C@@H](CC(=O)O)C(=O)N[C@@H](Cc1ccc(O)cc1)C(N)=O)[C@@H](C)CC)C(C)C)[C@@H](C)OP(=O)(O)O)[C@@H](C)CC [MELT16p] (H-ENHKND[Nle]DI[pT]QSC[Nle]VEIDY-NH2; N-terminus assumed)	
				c1nc2nc(Nc3ccc(N4CCOCC4)cc3)nc(NC3CCCCC3)c2[nH]1 [reversine]	~10
no binding was detected	no binding was detected	No binding	No binding	TDNYSDLEV-Tp-DSHTVFID-amide [MELT18p, single-phosphorylated MELT18 peptide from KNL1]	

Molecule	Binding of Bub1(1–553)/Bub3 to phosphorylated MELT peptide, in words (Bub1(1–553)/Bub3)	Binding of BubR1/Bub3 to phosphorylated MELT peptide, in words (BubR1/Bub3)	Bub1(1–553)/Bub3 KD (Bub1(1–553)/Bub3; 50 mM Tris pH 7.8, 50 mM NaCl, 0.5 mM TCEP, 0.05% Tween 20, labelled Bub1(1–553)/Bub3 12.5 nM (4 nM for double-phosphorylated MELT12), three independent repeats)	BubR1/Bub3 KD (BubR1/Bub3; 50 mM Tris pH 7.8, 50 mM NaCl, 0.5 mM TCEP, 0.05% Tween 20, labelled BubR1/Bub3 25 nM (4 nM for double-phosphorylated MELT12), three independent repeats)	BubR1 kinetochore levels remaining (normalized to CREST) (HeLa cells) [%]
CCCC[C@H](NC(=O)[C@H](CC(=O)O)NC(=O)[C@H](CC(N)=O)NC(=O)[C@H](CCCCN)NC(=O)[C@H](CC(=O)O)NC(=O)[C@H](CC(=O)O)NC(=O)[C@H](CCC(=O)O)NC(=O)COCCOCCNC(=O)[C@H](CS)NC(=O)COCCOCCNC(=O)CCCC[C@@H]1SC[C@@H]2NC(=O)N[C@@H]21)C(=O)N[C@@H](CC(=O)O)C(=O)N[C@H](C(=O)N[C@H](C(=O)N[C@@H](CCCCN)C(=O)N[C@@H](CO)C(=O)N[C@@H](Cc1ccc(O)cc1)C(=O)N[C@H](C(=O)N[C@H](C(=O)N[C@@H](CCC(=O)O)C(=O)N[C@H](C(=O)N[C@@H](CC(N)=O)C(N)=O)[C@@H](C)CC)[C@@H](C)CC)[C@@H](C)O)[C@@H](C)OP(=O)(O)O)[C@@H](C)CC [MELT12p]	bound	bound			
